Earlier results, collected in patent publication US20220031861A1, “COMBINATION THERAPY OF DIFFUSE LARGE B-CELL LYMPHOMA COMPRISING AN ANTI-CD79B IMMUNOCONJUGATES, AN ALKYLATING AGENT AND AN ANTI-CD20 ANTIBODY” (priority 2018, published 2022).

System: R/R DLBCL
[1] = R/R DLBCL, monotherapy and combined with an anti-CD20 monoclonal antibody

## Polatuzumab vedotin
[1]
  complete remission (CR) rates: 0-15%
  overall response rates (ORR): 13-56%
In combination with an anti-CD20 monoclonal antibody (Morschhauser et al. 2014, ROMULUS)
  CR rate reported previously: 15%
